# Patent US20220133651A1, “TREATMENT OF PITT-HOPKINS SYNDROME” (HEALX LTD, priority 2019, published 2022)
# Entries after “also recorded” stand apart in the source; their conditions may differ. Where a name gives a salt, the structure may show the parent alone.
# Legend:
# Tcf4+/− mice [1] = experiment: Dose response experiments in behavioural tests (Study 2); type: in vivo, mouse
# Method: Dose response experiments were conducted following the protocol described above. Amitriptyline rescued all the behavioral tests at 5 and 10 mg/kg.
# Tcf4+/− mice [2] = experiment: Test of Force (hind limb grip strength); type: in vivo, mouse; conditions: chronic treatment of Tcf4+/− mice
# From the text: The Tcf4+1− mouse model has been developed to mimic PTHS and therefore assess potential treatments. The mice have deficits in hippocampus-dependent learning and memory, spatial working memory, sociability, stereotypy, hyperactivity and daily living paradigms. […] Mice were purchased from The Jackson Laboratory and maintained on a C57BL/6 background. They were raised on a 12:12 light:dark cycle with ad libitum access to food and water. Controls consisted of TCF4+1+. All mice used were heterozygous for the Tcf4 mutation because homozygous mutations result in embryonic/post-partum lethality. There were four treatment groups per compound in the study with 10 male mice used per treatment group (all at 14 weeks of age): Group 1: wild-type littermate mice treated with vehicle (WT+veh); Group 2: Tcf4+/−KO mice treated with vehicle (Tcf4+1−+veh), Group 3: WT+drug; and Group 4: Tcf4+1−+drug. Tcf4+/− mice show a significant deficit in hindlimb strength (not forelimb) when compared with WT mice. Neuromuscular function of the hindlimbs was tested with a grip strength meter (San Diego Instruments). […] The force applied to the grid at the moment the grasp was released was recorded. Data were analysed by two-way analysis of variance (ANOVA) followed by post-test comparisons where appropriate using Tukey's Multiple Comparison Test, Data are represented as the mean and standard error of the mean (SEM).
# Tcf4+/− mice [3] = experiment: Self-grooming (assessment of stereotypy); type: in vivo, mouse; conditions: chronic treatment of Tcf4+/− mice
# From the text: The Tcf4+1− mouse model has been developed to mimic PTHS and therefore assess potential treatments. The mice have deficits in hippocampus-dependent learning and memory, spatial working memory, sociability, stereotypy, hyperactivity and daily living paradigms. […] Mice were purchased from The Jackson Laboratory and maintained on a C57BL/6 background. They were raised on a 12:12 light:dark cycle with ad libitum access to food and water. Controls consisted of TCF4+1+. All mice used were heterozygous for the Tcf4 mutation because homozygous mutations result in embryonic/post-partum lethality. There were four treatment groups per compound in the study with 10 male mice used per treatment group (all at 14 weeks of age): Group 1: wild-type littermate mice treated with vehicle (WT+veh); Group 2: Tcf4+/−KO mice treated with vehicle (Tcf4+1−+veh), Group 3: WT+drug; and Group 4: Tcf4+1−+drug. […] Usually in a sitting position, the mouse will lick its fur, groom with the forepaws, or scratch with any limb. Often the mouse will mix all of these grooming behaviors. […] Data were analysed by two-way analysis of variance (ANOVA) followed by post-test comparisons where appropriate using Tukey's Multiple Comparison Test, Data are represented as the mean and standard error of the mean (SEM).
# Tcf4+/− mice [4] = experiment: Fear conditioning (test of learning and memory); type: in vivo, mouse; conditions: chronic treatment of Tcf4+/− mice
# From the text: The Tcf4+1− mouse model has been developed to mimic PTHS and therefore assess potential treatments. The mice have deficits in hippocampus-dependent learning and memory, spatial working memory, sociability, stereotypy, hyperactivity and daily living paradigms. […] Mice were purchased from The Jackson Laboratory and maintained on a C57BL/6 background. They were raised on a 12:12 light:dark cycle with ad libitum access to food and water. Controls consisted of TCF4+1+. All mice used were heterozygous for the Tcf4 mutation because homozygous mutations result in embryonic/post-partum lethality. There were four treatment groups per compound in the study with 10 male mice used per treatment group (all at 14 weeks of age): Group 1: wild-type littermate mice treated with vehicle (WT+veh); Group 2: Tcf4+/−KO mice treated with vehicle (Tcf4+1−+veh), Group 3: WT+drug; and Group 4: Tcf4+1−+drug. Tcf4+/− mice show reduced freezing in the context of clued fear conditioning test indicating hippocampus-dependent memory and learning deficiency. […] Data were analysed by two-way analysis of variance (ANOVA) followed by post-test comparisons where appropriate using Tukey's Multiple Comparison Test, Data are represented as the mean and standard error of the mean (SEM).
# Tcf4+/− mice [5] = experiment: Sociability/Partition test (assessment of social anxiety); type: in vivo, mouse; conditions: chronic treatment of Tcf4+/− mice
# From the text: The Tcf4+1- mouse model has been developed to mimic PTHS and therefore assess potential treatments. The mice have deficits in hippocampus-dependent learning and memory, spatial working memory, sociability, stereotypy, hyperactivity and daily living paradigms. […] Mice were purchased from The Jackson Laboratory and maintained on a C57BL/6 background. They were raised on a 12:12 light:dark cycle with ad libitum access to food and water. Controls consisted of TCF4+1+. All mice used were heterozygous for the Tcf4 mutation because homozygous mutations result in embryonic/post-partum lethality. There were four treatment groups per compound in the study with 10 male mice used per treatment group (all at 14 weeks of age): Group 1: wild-type littermate mice treated with vehicle (WT+veh); Group 2: Tcf4+/-KO mice treated with vehicle (Tcf4+1-+veh), Group 3: WT+drug; and Group 4: Tcf4+1-+drug. In the three-chambered sociability task, a subject mouse was evaluated for its exploration of a novel social stimulus (novel mouse). […] The time spent exploring the novel mice was scored as exploration ratio. Data were analysed by two-way analysis of variance (ANOVA) followed by post-test comparisons where appropriate using Tukey's Multiple Comparison Test, Data are represented as the mean and standard error of the mean (SEM).
# Tcf4+/− mice [6] = experiment: Open field (measure of hyperactivity); type: in vivo, mouse; conditions: chronic treatment of Tcf4+/− mice
# From the text: The Tcf4+1− mouse model has been developed to mimic PTHS and therefore assess potential treatments. The mice have deficits in hippocampus-dependent learning and memory, spatial working memory, sociability, stereotypy, hyperactivity and daily living paradigms. […] Mice were purchased from The Jackson Laboratory and maintained on a C57BL/6 background. They were raised on a 12:12 light:dark cycle with ad libitum access to food and water. Controls consisted of TCF4+1+. All mice used were heterozygous for the Tcf4 mutation because homozygous mutations result in embryonic/post-partum lethality. There were four treatment groups per compound in the study with 10 male mice used per treatment group (all at 14 weeks of age): Group 1: wild-type littermate mice treated with vehicle (WT+veh); Group 2: Tcf4+/−KO mice treated with vehicle (Tcf4+1−+veh), Group 3: WT+drug; and Group 4: Tcf4+1−+drug. The open-field apparatus was used to test hyperactivity. […] The number of squares entered by the whole body (locomotor activity) was counted. The movement of the mouse around the field was recorded with a video tracking device for 3 min (version NT4.0, Viewpoint). Data were analysed by two-way analysis of variance (ANOVA) followed by post-test comparisons where appropriate using Tukey's Multiple Comparison Test, Data are represented as the mean and standard error of the mean (SEM).
# Tcf4+/− mice [7] = experiment: Nesting (test of daily living); type: in vivo, mouse; conditions: chronic treatment of Tcf4+/− mice
# From the text: The Tcf4+1− mouse model has been developed to mimic PTHS and therefore assess potential treatments. The mice have deficits in hippocampus-dependent learning and memory, spatial working memory, sociability, stereotypy, hyperactivity and daily living paradigms. […] Mice were purchased from The Jackson Laboratory and maintained on a C57BL/6 background. They were raised on a 12:12 light:dark cycle with ad libitum access to food and water. Controls consisted of TCF4+1+. All mice used were heterozygous for the Tcf4 mutation because homozygous mutations result in embryonic/post-partum lethality. There were four treatment groups per compound in the study with 10 male mice used per treatment group (all at 14 weeks of age): Group 1: wild-type littermate mice treated with vehicle (WT+veh); Group 2: Tcf4+/−KO mice treated with vehicle (Tcf4+1−+veh), Group 3: WT+drug; and Group 4: Tcf4+1−+drug. The test was performed in individual cages. Normal bedding covered the floor to a depth of 0.5 cm. […] Mice were placed individually into the nesting cages 1 hr. before the dark phase, and the results were assessed the next morning. Nest building was scored on a 5 point scale. […] Data were analysed by two-way analysis of variance (ANOVA) followed by post-test comparisons where appropriate using Tukey's Multiple Comparison Test, Data are represented as the mean and standard error of the mean (SEM).
# [8] = cited from earlier work
Compound,all the behavioral tests (dose response) (Tcf4+/− mice [1]; 5 mg/kg),all the behavioral tests (dose response) (Tcf4+/− mice [1]; 10 mg/kg),test of force (strength) (Tcf4+/− mice [2]),self-grooming (stereotypy) (Tcf4+/− mice [3]),fear conditioning (learning and memory) (Tcf4+/− mice [4]),sociability (social anxiety) (Tcf4+/− mice [5]),open field (hyperactivity) (Tcf4+/− mice [6]),nesting (tests of daily living) (Tcf4+/− mice [7]),solubility in water [8]
CN(C)CCC=C1c2ccccc2CCc2ccccc21 [amitriptyline],rescued,rescued,significantly improved; also recorded: rescuing,significantly improved; also recorded: rescuing,significantly improved; also recorded: rescuing,significantly improved; also recorded: rescuing,significantly improved; also recorded: rescuing,significantly improved; also recorded: rescuing,
"CN(C)CCC=C1c2ccccc2CCc2ccccc21 [amitriptyline HCL, 3-(10,11-dihydro-5H-dibenzo [ad]cycloheptene-5-ylidene)-N,N-dimethyl-1-propanamine hydrochloride]",,,,,,,,,freely soluble
